The source made the active and inactive calls. The rule behind the calls is not given here.
Test system: CCRIS mutagenicity, Ames/micronucleus/aberration tests
Test: CCRIS mutagenicity studies
[1] = Test System: AMES SALMONELLA TYPHIMURIUM, Strain/Indicator: TA98, Metabolic Activation: NONE, Method: PREINCUBATION
[2] = Test System: AMES SALMONELLA TYPHIMURIUM, Strain/Indicator: TA100, Metabolic Activation: NONE, Method: PREINCUBATION
[3] = Test System: Mouse lymphoma, Strain/Indicator: L5178Y (tk+/tk-), Metabolic Activation: None, Method: Suspension/plate
[4] = Test System: Mouse lymphoma, Strain/Indicator: L5178Y (tk+/tk-), Metabolic Activation: Rat, Liver, S-9, Aroclor 1254, Method: Suspension/plate

CNc1ccccc1
mutagenic call (Test System: AMES SALMONELLA TYPHIMURIUM, Strain/Indicator: TA97, Metabolic Activation: HAMSTER, LIVER, S-9, AROCLOR 1254 (10%), Method: PREINCUBATION): inactive; negative
mutagenic call (Test System: AMES SALMONELLA TYPHIMURIUM, Strain/Indicator: TA97, Metabolic Activation: HAMSTER, LIVER, S-9, AROCLOR 1254 (30%), Method: PREINCUBATION): inactive; negative
mutagenic call (Test System: AMES SALMONELLA TYPHIMURIUM, Strain/Indicator: TA97, Metabolic Activation: NONE, Method: PREINCUBATION): inactive; negative
mutagenic call (Test System: AMES SALMONELLA TYPHIMURIUM, Strain/Indicator: TA97, Metabolic Activation: RAT, LIVER, S-9, AROCLOR 1254 (10%), Method: PREINCUBATION): inactive; negative
mutagenic call (Test System: AMES SALMONELLA TYPHIMURIUM, Strain/Indicator: TA97, Metabolic Activation: RAT, LIVER, S-9, AROCLOR 1254 (30%), Method: PREINCUBATION): inactive; negative
mutagenic call (Test System: AMES SALMONELLA TYPHIMURIUM, Strain/Indicator: TA98, Metabolic Activation: HAMSTER, LIVER, S-9, AROCLOR 1254 (10%), Method: PREINCUBATION): inactive; negative
mutagenic call (Test System: AMES SALMONELLA TYPHIMURIUM, Strain/Indicator: TA98, Metabolic Activation: HAMSTER, LIVER, S-9, AROCLOR 1254 (30%), Method: PREINCUBATION): inactive; negative
mutagenic call (Test System: AMES SALMONELLA TYPHIMURIUM, Strain/Indicator: TA98, Metabolic Activation: HAMSTER, LIVER, S-9, SODIUM PHENOBARBITAL AND 5,6-BENZOFLAVONE, Method: PREINCUBATION): inactive; negative
mutagenic call [1]: inactive; negative
mutagenic call (Test System: AMES SALMONELLA TYPHIMURIUM, Strain/Indicator: TA98, Metabolic Activation: RAT, LIVER, S-9, AROCLOR 1254 (10 OR 30%), Method: PREINCUBATION): inactive; negative
mutagenic call (Test System: AMES SALMONELLA TYPHIMURIUM, Strain/Indicator: TA100, Metabolic Activation: HAMSTER, LIVER, S-9, AROCLOR 1254 (10%), Method: PREINCUBATION): inactive; negative
mutagenic call (Test System: AMES SALMONELLA TYPHIMURIUM, Strain/Indicator: TA100, Metabolic Activation: HAMSTER, LIVER, S-9, AROCLOR 1254 (30%), Method: PREINCUBATION): inactive; negative
mutagenic call (Test System: AMES SALMONELLA TYPHIMURIUM, Strain/Indicator: TA100, Metabolic Activation: HAMSTER, LIVER, S-9, SODIUM PHENOBARBITAL AND 5,6-BENZOFLAVONE, Method: PREINCUBATION): inactive; negative
mutagenic call [2]: inactive; negative
mutagenic call (Test System: AMES SALMONELLA TYPHIMURIUM, Strain/Indicator: TA100, Metabolic Activation: RAT, LIVER, S-9, AROCLOR 1254 (10 OR 30%), Method: PREINCUBATION): inactive; negative
mutagenic call (Test System: AMES SALMONELLA TYPHIMURIUM, Strain/Indicator: TA102, Metabolic Activation: HAMSTER, LIVER, S-9, SODIUM PHENOBARBITAL AND 5,6-BENZOFLAVONE, Method: PREINCUBATION): inactive; negative
mutagenic call (Test System: AMES SALMONELLA TYPHIMURIUM, Strain/Indicator: TA102, Metabolic Activation: NONE, Method: PREINCUBATION): inactive; negative
mutagenic call (Test System: AMES SALMONELLA TYPHIMURIUM, Strain/Indicator: TA104, Metabolic Activation: HAMSTER, LIVER, S-9, SODIUM PHENOBARBITAL AND 5,6-BENZOFLAVONE, Method: PREINCUBATION): inactive; negative
mutagenic call (Test System: AMES SALMONELLA TYPHIMURIUM, Strain/Indicator: TA104, Metabolic Activation: NONE, Method: PREINCUBATION): inactive; negative
mutagenic call (Test System: AMES SALMONELLA TYPHIMURIUM, Strain/Indicator: TA1535, Metabolic Activation: HAMSTER, LIVER, S-9, AROCLOR 1254 (10%), Method: PREINCUBATION): inactive; negative
mutagenic call (Test System: AMES SALMONELLA TYPHIMURIUM, Strain/Indicator: TA1535, Metabolic Activation: HAMSTER, LIVER, S-9, AROCLOR 1254 (30%), Method: PREINCUBATION): inactive; negative
mutagenic call (Test System: AMES SALMONELLA TYPHIMURIUM, Strain/Indicator: TA1535, Metabolic Activation: HAMSTER, LIVER, S-9, SODIUM PHENOBARBITAL AND 5,6-BENZOFLAVONE, Method: PREINCUBATION): inactive; negative
mutagenic call (Test System: AMES SALMONELLA TYPHIMURIUM, Strain/Indicator: TA1535, Metabolic Activation: NONE, Method: PREINCUBATION): inactive; negative
mutagenic call (Test System: AMES SALMONELLA TYPHIMURIUM, Strain/Indicator: TA1535, Metabolic Activation: RAT, LIVER, S-9, AROCLOR 1254 (10 OR 30%), Method: PREINCUBATION): inactive; negative
mutagenic call (Test System: AMES SALMONELLA TYPHIMURIUM, Strain/Indicator: TA1537, Metabolic Activation: HAMSTER, LIVER, S-9, SODIUM PHENOBARBITAL AND 5,6-BENZOFLAVONE, Method: PREINCUBATION): inactive; negative
mutagenic call (Test System: AMES SALMONELLA TYPHIMURIUM, Strain/Indicator: TA1537, Metabolic Activation: NONE, Method: PREINCUBATION): inactive; negative
mutagenic call (Test System: E. COLI, Strain/Indicator: WP2UVRA/PKM101, Metabolic Activation: HAMSTER, LIVER, S-9, SODIUM PHENOBARBITAL AND 5,6-BENZOFLAVONE, Method: PREINCUBATION): inactive; negative
mutagenic call (Test System: E. COLI, Strain/Indicator: WP2UVRA/PKM101, Metabolic Activation: NONE, Method: PREINCUBATION): inactive; negative
mutagenic call (Test System: E. COLI, Strain/Indicator: WP2UVRA, Metabolic Activation: HAMSTER, LIVER, S-9, SODIUM PHENOBARBITAL AND 5,6-BENZOFLAVONE, Method: PREINCUBATION): inactive; negative
mutagenic call (Test System: E. COLI, Strain/Indicator: WP2UVRA, Metabolic Activation: NONE, Method: PREINCUBATION): inactive; negative
mutagenic call (Test System: UDS RODENT HEPATOCYTES, Strain/Indicator: THY INCORP (NON-S-PHASE), Metabolic Activation: NONE, Method: AUTORADIOGRAPHY): inactive; negative

CCN(Cc1cccc(S(=O)(=O)O)c1)c1ccc(C(=C2C=CC(=[N+](CC)Cc3cccc(S(=O)(=O)O)c3)C=C2)c2ccc(O)cc2S(=O)(=O)[O-])cc1
mutagenic call (End Point: IN VIVO MICRONUCLEUS, Test System: BONE MARROW POLYCHROMATIC ERYTHROCYTES, Species: MOUSE, Strain/Sex: DDY/MALE, Route: IP): inactive; negative
mutagenic call [3]: inactive; negative
mutagenic call [4]: inactive; negative

CC(=O)Nc1ccc(Nc2ccc([N+](=O)[O-])cc2)cc1
mutagenic call (Test System: AMES SALMONELLA TYPHIMURIUM, Strain/Indicator: TA98(NR), Metabolic Activation: NONE, Method: PREINCUBATION): inactive; negative
mutagenic call [1]: active; positive
mutagenic call (Test System: AMES SALMONELLA TYPHIMURIUM, Strain/Indicator: TA98, Metabolic Activation: RAT, LIVER, S-9, AROCLOR 1254, Method: PREINCUBATION): active; positive

OC(c1ccc(Cl)cc1)(c1ccc(Cl)cc1)C(Cl)(Cl)Cl
mutagenic call (End Point: IN VITRO CHROMOSOMAL ABERRATIONS, Test System: CHINESE HAMSTER OVARY CELLS, Metabolic Activation: NONE): inactive; negative
mutagenic call (End Point: IN VITRO CHROMOSOMAL ABERRATIONS, Test System: CHINESE HAMSTER OVARY CELLS, Metabolic Activation: RAT, LIVER, S-9, AROCLOR 1254): inactive; negative
mutagenic call (End Point: IN VIVO MICRONUCLEUS, Test System: BONE MARROW POLYCHROMATIC ERYTHROCYTES, Species: MOUSE, Strain/Sex: SWISS/MALE, FEMALE, Route: IP 2X IN AQUEOUS SUSPENSION WITHIN 24 HR): inactive; negative

N[C@@H](CS/C=C/Cl)C(=O)O
mutagenic call [2]: inactive; negative
mutagenic call (Test System: AMES SALMONELLA TYPHIMURIUM, Strain/Indicator: TA2638, Metabolic Activation: NONE, Method: PREINCUBATION): active; positive

COCOC
mutagenic call [3]: inactive; negative
mutagenic call [4]: inactive; negative

Reference: PubChem BioAssay AID1259407 (Chemical Carcinogenesis Research Information System (CCRIS), 2018)
